Source: patent US8030518B2, “1,4 diamino bicyclic retigabine analogues as potassium channel modulators” (Valeant Pharmaceuticals International, priority 2006, dated 2011)

Experiments:
[1] = test system: maximal electroshock seizure; assay: rat maximal electroshock seizure (MES) test; type: in vivo
Text: (§1) The MES testing protocol is based on procedures established at the National Institute of Neurological Disorders and Stroke in conjunction with the Anticonvulsant Screening Program (ASP) at the University of Utah (White, H. S., Woodhead, J. H., Wilcox, K. S., Stables, J. P., Kupferberg, H. J and Wolf, H. H. 2002. “General Principles: Discovery and Preclinical Development of Antiepileptic Drugs,” in Antiepileptic Drugs, 5th Edition, R. H. Levy, ed.; R. H. Mattson, B. S. Meldrum, and E. Perucca. Philadelphia, Lippincott Williams & Wilkins.), The goal of the test is to rapid identify and characterize the in vivo anticonvulsant activity of any compounds that have been shown active in PC-12 cellular based Rb^+ efflux assay.
(§2) Adult male CF-1 albino mice (18-25 g, Charles River Laboratories) are […] used for MES screening of compounds. Male Sprague-Dawley albino rats (100-125 g, Charles River Laboratories) are also used to test anticonvulsant compounds. Animals are permitted to rest and recover from transit for at least 48 hr prior to experimentation. Animals are used for AED testing only once. In some instances, the animals can be anesthetized prior to blood collection or whole brain extraction for pharmacokinetic assay. All animals are maintained and handled as outlined in standard animal care guidelines.
In the experiments, testing compounds are prepared as suspensions in 0.5% methyl cellulose (Sigma, Cat # M0512, Viscosity 4000 cP at 20° C.) in water, regardless of solubility. Dry powder compounds are initially ground with a glass rod in a test tube in several drops of methyl cellulose to create a paste and to break down any large chunks. After several minutes of grinding, the volume of the suspension is increased to the final concentration desired. The suspension is then sonicated using a Branson sonicator model 3510 in a water bath at room temperature for 15 minutes. Compound suspensions are further vortexed prior to animal dosing. In some of the cases, DMSO is used to initially solubilize compounds in small volumes and then this solution is added to the 0.5% methyl cellulose solution, in order to create more even and less aggregated compound suspensions. The final concentration of DMSO is 3.75%, an amount with no apparent toxicity or neuroprotective effects in our usual rotarod and MES tests. Methyl cellulose/DMSO compound suspensions are identically prepared for intraperitoneally (i.p.)dosing to mice or orally (p.o.) dosing to rats. […]
A Rodent Electroconvulsive Stimulator (Model 200, Hamit-Darvin-Freesh, Snow Canyon Clinic, Ivins, Utah) is used for MES testing. […] Animals are monitored for hind limb tonic extension as the end point for this test. Current delivery is recorded as a measure of overall seizure-induction potential. […]

[2] = test system: maximal electroshock seizure; assay: mouse maximal electroshock seizure (MES) test; type: in vivo; parameters: key: A: active; B: inactive; conditions: ip dosing of 12.5 mg/kg
Text: as §1, §2
In the experiments, testing compounds are prepared as suspensions in 0.5% methyl cellulose (Sigma, Cat # M0512, Viscosity 4000 cP at 20° C.) in water, regardless of solubility. Dry powder compounds are initially ground with a glass rod in a test tube in several drops of methyl cellulose to create a paste and to break down any large chunks. After several minutes of grinding, the volume of the suspension is increased to the final concentration desired. The suspension is then sonicated using a Branson sonicator model 3510 in a water bath at room temperature for 15 minutes. Compound suspensions are further vortexed prior to animal dosing. In some of the cases, DMSO is used to initially solubilize compounds in small volumes and then this solution is added to the 0.5% methyl cellulose solution, in order to create more even and less aggregated compound suspensions. The final concentration of DMSO is 3.75%, an amount with no apparent toxicity or neuroprotective effects in our usual rotarod and MES tests. Methyl cellulose/DMSO compound suspensions are identically prepared for intraperitoneally (i.p.)dosing to mice or orally (p.o.) dosing to rats.
Initially the animals are weighed with an electronic scale and then marked. Data recording sheets are generated for each compound assessment. Mice or rats are dosed with the compound suspension at 0.01 mL/g of body weight. The typical injection volume range is between 180-250 μl for mice. Compounds are dosed by i.p. to mice using a 25 or 22 gauge needle, depending on the viscosity of the suspension. Rats are p.o. dosed using a flexible feeding tube, typically starting at a compound dose of 5 mg/kg.
A Rodent Electroconvulsive Stimulator (Model 200, Hamit-Darvin-Freesh, Snow Canyon Clinic, Ivins, Utah) is used for MES testing. A 60-Hz alternating current (50 mA for mice; 150 mA for rats) is delivered for 0.2 seconds through corneal electrodes to the mice. A drop of 0.5% tetracaine (Sigma, Cat. # T-7508) solution is placed on the eye prior to current delivery. The electrodes are subsequently placed gently onto the eyes of the animal and the electrical shock is initiated by triggering through a foot-pedal activator. The animals are restrained by hand and gently released as the shock is delivered and the seizure commences. Animals are monitored for hind limb tonic extension as the end point for this test. Current delivery is recorded as a measure of overall seizure-induction potential. Electrical current delivery can vary from approximately 30-55 mA (mice) or 90-160 mA (rats) depending on impedance in the animal and quality of the current delivery (i.e. correct placement of the electrodes on the cornea). […]

KCNQ2/3 heteromultimers = molecular target: T1, KCNQ2/3 heteromultimers (Rattus norvegicus, UniProt O88943+O88944); assay: cell-based Rb+ efflux assay in PC-12 cells; conditions: Rb+ efflux cellular assay
T1 construct: endogenous in cells; host or cells: PC-12 cells differentiated with NGF-7s; no transfection described
Protocol: Compounds of this invention formula were evaluated for activity toward potassium channels in a cell-based Rb^+ efflux assay. This cellular bioassay is believed to faithfully represent the M channel activities identified with KCNQ2/3 heteromultimers. […] Additionally, antiseizure activity in vivo was evaluated in a mouse maximal electroshock seizure (MES) model, and neurotoxicities were determined from a rotorod neurocognitive motor impairment model and open field observation.
PC-12 cells were grown at 37° C. and 5% CO2 in DMEM/F12 Medium (Dulbecco's Modified Eagle Medium with Nutrient Mix F-12, available from Invitrogen of Carlsbad, Calif.), supplemented with 10% horse serum, 5% fetal bovine serum, 2 mM glutamine, 100 U/ml penicillin, and 100 U/ml streptomycin. They were plated in poly-D-lysine-coated 96-well cell culture microplates at a density of 40,000 cells/well and differentiated with 100 ng/ml NGF-7s for 2-5 days. For the assay, the medium was aspirated, and the cells were washed once with 0.2 ml wash buffer (25 mM HEPES, pH 7.4, 150 mM NaCl, 1 mM MgCl2, 0.8 mM NaH2PO4, 2 mM CaCl2). The cells were then loaded with 0.2 ml Rb^+ loading buffer (wash buffer plus 5.4 mM […], 5 mM glucose) and incubated at 37° C. for 2 h. Attached cells were washed quickly three times with buffer (same as Rb^+ loading buffer, but containing 5.4 mM KCl instead of RbCl) to remove extracellular Rb^+. Immediately following the wash, 0.2 ml of depolarization buffer (wash buffer plus 15 mM KCl solution) with or without compounds was added to the cells to activate efflux of potassium ion channels. After incubation for 10 min at room temperature, the supernatant was carefully removed and collected. Cells were lysed by the addition of 0.2 ml of lysis buffer (depolarization buffer plus 0.1% Triton X-100) and the cell lysates were also collected. If collected samples were not immediately analyzed for Rb^+ contents by atomic absorption spectroscopy (see below), they were stored at 4° C. without any negative effects on subsequent Rb^+ analysis.
The concentrations of Rb^+ in the supernatants (Rb^+Sup) and the cell lysates (Rb^+Lys) were quantified using an ICR8000 flame atomic absorption spectrometer (Aurora Biomed Inc., Vancouver, B.C.) under conditions defined by the manufacturer. Samples 0.05 ml in volume were processed automatically from microtiter plates by dilution with an equal volume of Rb^+ sample analysis buffer and injection into an air-acetylene flame. The amount of Rb^+ in the sample was measured by absorption at 780 nm using a hollow cathode lamp as light source and a PMT detector. A calibration curve covering the range 0-5 mg/L Rb^+ in sample analysis buffer was generated with each set of plates. The percent Rb^+ efflux (F) was defined by F=[Rb^+Sup/(Rb^+Sup+Rb^+Lys)]×100%. […] The efflux (F) and compound concentration relationship was plotted to calculate an EC50 value, a compound's concentration for 50% of maximal Rb^+ efflux. Seizure Model Tests

SMILES | ED50 [1] [mg/kg] | Mouse MES test [2] | EC50 (KCNQ2/3 heteromultimers) [nM]
Cc1cc2c(c(C)c1NC(=O)CC(C)(C)C)CCC2Nc1ccc(F)cc1 (single isomer, unassigned; (-)) [Example 12, (−) N-(1-(4-fluorophenylamino)-4,6-dimethyl-2,3-dihydro-1H-inden-5-yl)-3,3-dimethylbutanamide] | < 20 | A | ≤ 1
Cc1cc2c(c(C)c1NC(=O)CC(C)(C)C)CCC2Nc1ccc(C(F)(F)F)cc1 (single isomer, unassigned; (-)) [Example 15, (−) N-(4,6-dimethyl-1-(4-(trifluoromethyl)phenylamino)-2,3-dihydro-1H-inden-5-yl)-3,3-dimethylbutanamide] | < 20 | A | ≤ 1
Cc1cc2c(c(C)c1NC(=O)CC(C)(C)C)CCC2Nc1ccc(F)cc1 (stereo not shown) [Example 11, N-(1-(4-fluorophenylamino)-4,6-dimethyl-2,3-dihydro-1H-inden-5-yl)-3,3-dimethylbutanamide] | < 20 | A | 1 to 10
Cc1cc2c(c(C)c1NC(=O)CC(C)(C)C)CCC2Nc1ccc(C(F)(F)F)cc1 (stereo not shown) [Example 14, N-(4,6-dimethyl-1-(4-(trifluoromethyl)phenylamino)-2,3-dihydro-1H-inden-5-yl)-3,3-dimethylbutanamide] | < 20 | A | 1 to 10
Cc1cc2c(c(C)c1NC(=O)CC(C)(C)C)CCC2Nc1ccc(F)nc1 (stereo not shown) [Example 23, N-(1-(6-fluoropyridin-3-ylamino)-4,6-dimethyl-2,3-dihydro-1H-inden-5-yl)-3,3-dimethylbutanamide] |  | A | 50 to 500
Cc1cc2c(c(C)c1NC(=O)CC(C)(C)C)CCC2Nc1ccc(C(F)(F)F)nc1 (stereo not shown) [Example 24, N-(1-(6-trifluoromethylpyridin-3-ylamino)-4,6-dimethyl-2,3-dihydro-1H-inden-5-yl)-3,3-dimethylbutanamide] |  | A | 10 to 50
